Assay results taken from publication PMC4303209, “A novel phosphatidylinositol 3-kinase (PI3K) inhibitor directs a potent FOXO-dependent, p53-independent cell cycle arrest phenotype characterized by the differential induction of a subset of FOXO-regulated genes” (Breast Cancer Research : BCR, 2014).

Tested on: MCF-7 breast cancer cells
Assay: Microarray gene expression analysis (Agilent whole human genome 4 x 44K; compound vs DMSO, LIMMA log2 fold change)
Assay type: cell-based
Conditions: Apoptosis genes

Cn1ncc2c(N3CCOCC3)nc(-c3cccc(O)c3)nc21 [ETP-45658]
TBX1 log2FC (Gene 6899): -0.252
TBX5 log2FC (Gene 6910): 0.253
TBX3 log2FC (Gene 6926): -0.702
TCF7L2 log2FC (Gene 6934): 0.069
TDGF1 log2FC (Gene 6997): -0.229
PRDX2 log2FC (Gene 7001): 0.238
TERF1 log2FC (Gene 7013): 0.607
TERT log2FC (Gene 7015): -0.174
TFAP2A log2FC (Gene 7020): -0.422
TFAP2B log2FC (Gene 7021): -0.228
TFAP4 log2FC (Gene 7023): 0.268
TGFA log2FC (Gene 7039): -0.305
TGFB1 log2FC (Gene 7040): -0.640
TGFB3 log2FC (Gene 7043): 0.297
TGFBR1 log2FC (Gene 7046): 0.107
TGFBR2 log2FC (Gene 7048): 0.848
TGM2 log2FC (Gene 7052): -0.663
THBS1 log2FC (Gene 7057): -0.941
THRA log2FC (Gene 7067): 0.422
TIA1 log2FC (Gene 7072): 0.264
TIAL1 log2FC (Gene 7073): 0.293
TIAM1 log2FC (Gene 7074): -0.410
TIMP1 log2FC (Gene 7076): -0.529
TJP1 log2FC (Gene 7082): 0.201
TLE1 log2FC (Gene 7088): 0.258
TLR2 log2FC (Gene 7097): -0.108
TLR3 log2FC (Gene 7098): 0.853
NR2E1 log2FC (Gene 7101): -0.094
TMF1 log2FC (Gene 7110): 0.560
TNF log2FC (Gene 7124): -1.647
TNFAIP1 log2FC (Gene 7126): -0.176
TNFAIP3 log2FC (Gene 7128): -0.659
TNFRSF1A log2FC (Gene 7132): -1.037
TOP2A log2FC (Gene 7153): 0.987
TP53 log2FC (Gene 7157): -0.193
TP53BP2 log2FC (Gene 7159): 0.300
TP73 log2FC (Gene 7161): -0.503
TPD52L1 log2FC (Gene 7164): 0.379
TPT1 log2FC (Gene 7178): 0.799
HSP90B1 log2FC (Gene 7184): 0.583
TRAF1 log2FC (Gene 7185): -0.690
TRAF3 log2FC (Gene 7187): -0.696
TRAF5 log2FC (Gene 7188): 0.441
TRAF6 log2FC (Gene 7189): -0.110
TRIO log2FC (Gene 7204): 0.329
TRPS1 log2FC (Gene 7227): 0.712
PHLDA2 log2FC (Gene 7262): -2.933
TWIST1 log2FC (Gene 7291): 0.401
TNFRSF4 log2FC (Gene 7293): -0.061
TYRO3 log2FC (Gene 7301): -0.084
UBA52 log2FC (Gene 7311): 0.322
UBB log2FC (Gene 7314): 0.069
UBC log2FC (Gene 7316): 0.294
UBE2B log2FC (Gene 7320): 0.582
UBE2D3 log2FC (Gene 7323): -0.312
UCN log2FC (Gene 7349): 0.210
UCP2 log2FC (Gene 7351): 0.279
UNG log2FC (Gene 7374): -0.235
VAV1 log2FC (Gene 7409): 0.573
VAV2 log2FC (Gene 7410): 0.047
VCP log2FC (Gene 7415): -0.341
VDAC1 log2FC (Gene 7416): -0.389
VDR log2FC (Gene 7421): -0.801
VEGFB log2FC (Gene 7423): -0.219
VHL log2FC (Gene 7428): 0.156
WFS1 log2FC (Gene 7466): -0.738
WNT5A log2FC (Gene 7474): 0.075
WNT7A log2FC (Gene 7476): -0.084
WNT7B log2FC (Gene 7477): -0.527
WNT10B log2FC (Gene 7480): -0.451
WNT11 log2FC (Gene 7481): -0.151
WNT9A log2FC (Gene 7483): 0.073
WRN log2FC (Gene 7486): 0.441
WT1 log2FC (Gene 7490): -0.635
XDH log2FC (Gene 7498): 0.061
XPA log2FC (Gene 7507): 0.451
XRCC2 log2FC (Gene 7516): -0.596
XRCC4 log2FC (Gene 7518): 0.589
YWHAB log2FC (Gene 7529): 0.414
YWHAE log2FC (Gene 7531): 0.239
YWHAG log2FC (Gene 7532): -0.492
YWHAH log2FC (Gene 7533): -0.469
YWHAZ log2FC (Gene 7534): -0.139
ZNF16 log2FC (Gene 7564): 0.343
PCGF2 log2FC (Gene 7703): -0.266
DAP3 log2FC (Gene 7818): 0.449
BTG2 log2FC (Gene 7832): -1.109
PAX8 log2FC (Gene 7849): 0.414
FZD5 log2FC (Gene 7855): -0.562
SCG2 log2FC (Gene 7857): 0.617
NR4A3 log2FC (Gene 8013): 0.735
LHX3 log2FC (Gene 8022): 0.038
RASSF7 log2FC (Gene 8045): 0.255
FOSL1 log2FC (Gene 8061): -2.502
CUL5 log2FC (Gene 8065): -0.432
FXR1 log2FC (Gene 8087): 0.876
HMGA2 log2FC (Gene 8091): -1.656
GDF5 log2FC (Gene 8200): -0.419
RBM10 log2FC (Gene 8241): -0.320
AXIN1 log2FC (Gene 8312): 0.481
NME5 log2FC (Gene 8382): 0.189
PLA2G6 log2FC (Gene 8398): -0.247
SRPX log2FC (Gene 8406): 0.110
STK24 log2FC (Gene 8428): -0.121
NSMAF log2FC (Gene 8439): 0.488
DYRK2 log2FC (Gene 8445): -0.546
CUL4A log2FC (Gene 8451): 0.552
CUL3 log2FC (Gene 8452): 0.137
CUL2 log2FC (Gene 8453): 0.454
CUL1 log2FC (Gene 8454): 0.479
KLF11 log2FC (Gene 8462): 1.337
OGT log2FC (Gene 8473): 0.232
IKBKG log2FC (Gene 8517): -0.398
CBX4 log2FC (Gene 8535): -0.217
API5 log2FC (Gene 8539): -0.382
YARS log2FC (Gene 8565): -0.265
MADD log2FC (Gene 8567): 0.423
UNC5C log2FC (Gene 8633): -0.082
AKR1C3 log2FC (Gene 8644): 0.209
NCOA1 log2FC (Gene 8648): 0.390
DYNLL1 log2FC (Gene 8655): -0.944
IRS2 log2FC (Gene 8660): 0.732
BECN1 log2FC (Gene 8678): 0.486
PEA15 log2FC (Gene 8682): 0.593
HYAL2 log2FC (Gene 8692): -0.387
TRADD log2FC (Gene 8717): 0.340
TNFRSF25 log2FC (Gene 8718): -0.499
RIPK1 log2FC (Gene 8737): -0.187
CRADD log2FC (Gene 8738): -0.101
HRK log2FC (Gene 8739): 0.385
RIPK2 log2FC (Gene 8767): 0.592
TNFRSF6B log2FC (Gene 8771): -1.094
FADD log2FC (Gene 8772): -0.522
TNFRSF18 log2FC (Gene 8784): -0.321
TNFRSF10D log2FC (Gene 8793): -0.444
TNFRSF10B log2FC (Gene 8795): -0.935
TNFRSF10A log2FC (Gene 8797): -0.657
TRIM24 log2FC (Gene 8805): 0.836
NRP1 log2FC (Gene 8829): -0.517
SYNGAP1 log2FC (Gene 8831): -0.373
SOCS2 log2FC (Gene 8835): 0.750
CFLAR log2FC (Gene 8837): -0.499
HDAC3 log2FC (Gene 8841): -0.217
ALKBH1 log2FC (Gene 8846): -0.105
TSC22D1 log2FC (Gene 8848): 0.485
CDK5R1 log2FC (Gene 8851): -0.154
ALDH1A2 log2FC (Gene 8854): 0.218
IER3 log2FC (Gene 8870): -1.789
ARHGEF7 log2FC (Gene 8874): 0.162
SPHK1 log2FC (Gene 8877): -0.334
SQSTM1 log2FC (Gene 8878): 0.788
SGPL1 log2FC (Gene 8879): -0.071
TAX1BP1 log2FC (Gene 8887): 1.376
BCL10 log2FC (Gene 8915): 0.158
MBD4 log2FC (Gene 8930): 0.489
NOL3 log2FC (Gene 8996): 0.514
